Assay results taken from the NIST ThermoML archive (doi:10.1016/j.jct.2010.01.014).

Settings: Crystal, Calculated from knudsen effusion weight loss

c1ccc2c(c1)Nc1ccccc1O2 [phenoxazine]
Settings	vapor or sublimation pressure [kPa]
329.7 K	2.81e-05
336.7 K	5.94e-05
340.9 K	0.000102
344.9 K	0.000164
345.1 K	0.000164
346.9 K	0.000196
348.2 K	0.00022
352.9 K	0.000345
353.1 K	0.000363
356.7 K	0.000483
360.9 K	0.000748
364.5 K	0.00107

c1ccc2c(c1)[nH]c1cnccc12 [9H-pyrido[3,4-b]indole]
Settings	vapor or sublimation pressure [kPa]
352.8 K	5.7e-06
363.8 K	1.74e-05
367.9 K	2.56e-05
368.1 K	2.72e-05
370.3 K	3.37e-05
371.4 K	4.16e-05
371.5 K	4.16e-05
374.1 K	5.03e-05
374.4 K	5.45e-05
378.2 K	7.53e-05
381.8 K	0.000103
382 K	0.000107
382.2 K	0.000108
385.4 K	0.000141
385.9 K	0.000155
389.2 K	0.000218
389.4 K	0.000229

ON=C1c2ccccc2-c2ccccc21 [9-oximinofluorene]
Settings	vapor or sublimation pressure [kPa]
374.5 K	0.000175
376.6 K	0.000198
378.5 K	0.000231
382.6 K	0.000302
383.2 K	0.000317
386.2 K	0.000385
387.9 K	0.000428
389.9 K	0.000474
393.8 K	0.000613
395.2 K	0.000671
398.6 K	0.000816

O=C1c2ccccc2-c2ccccc21 [9(9H)-fluorenone]
Settings	vapor or sublimation pressure [kPa]
300.8 K	1.21e-05
303.6 K	1.69e-05
307.9 K	2.79e-05
309.8 K	3.65e-05
313 K	5.1e-05
313.1 K	5.09e-05
315.1 K	6.16e-05
323 K	0.000139
323.1 K	0.000143
324.5 K	0.000159
324.7 K	0.000167
328.4 K	0.000246
328.6 K	0.000245
330.9 K	0.000311
331.1 K	0.000319
331.9 K	0.000345
336.5 K	0.000528
336.6 K	0.00054
337.8 K	0.000596
337.9 K	0.000599
342.7 K	0.000937
342.8 K	0.000952

c1ccc2c(c1)Oc1ccccc1S2 [phenoxathiin]
Settings	vapor or sublimation pressure [kPa]
304.2 K	8.61e-05
308.7 K	0.000143
311.4 K	0.000209
311.5 K	0.000207
311.9 K	0.000217
318.2 K	0.000453
323 K	0.000771
324.5 K	0.000927

OC1c2ccccc2-c2ccccc21 [9H-fluoren-9-ol]
Settings	vapor or sublimation pressure [kPa]
326.1 K	2.1e-05
327.5 K	2.44e-05
329.8 K	3.15e-05
331.3 K	3.74e-05
334.9 K	5.12e-05
340.9 K	0.000101
342.6 K	0.000115
343.6 K	0.000123
344.7 K	0.000144
346.1 K	0.000159
347.4 K	0.000186
351.2 K	0.000276
355.1 K	0.000402
358.7 K	0.00056
361.9 K	0.00074
366.1 K	0.00103

O=C1c2ccccc2C(=O)c2ccccc21 [9,10(9H,10H)-anthracenedione]
Settings	vapor or sublimation pressure [kPa]
346 K	4.49e-06
359.9 K	2.09e-05
360.9 K	2.2e-05
362.7 K	2.52e-05
367.4 K	4.1e-05
369.9 K	5.42e-05
377.6 K	0.000119
379.2 K	0.000144
380.1 K	0.000149
385.4 K	0.000267
385.8 K	0.000263
386.8 K	0.000305
392.7 K	0.000493
392.8 K	0.000494
393.4 K	0.000519
399.2 K	0.000872
399.9 K	0.000948
